Entries after “also recorded” stand apart in the source; their conditions may differ. Values belong to the compound of their own block, whether it stands above or below them.
How the values were obtained:
BRD4-1 = biological target: T1, BRD4-1 (Homo sapiens, UniProt O60885); assay: AlphaScreen histone peptide displacement assay, BRD4-1; format: binding
T1 construct: evaluated against both domains of BRD4, BRD4-1 and BRD4-2; Reaction Biology
Description: (§1) Experiments performed on HeLa cells.
(§2) FIG. 4: Biological evaluation of Tz-thalidomide against both domains of BRD4, BRD4-1 and BRD4-2. Biological evaluation of Tz-thalidomide (n=2) by AlphaScreen (performed by Reaction Biology).

BRD4 = biological target: T2, BRD4 (Homo sapiens, UniProt O60885); assay: BRD4 degradation by self-assembling CLIPTACs in HeLa cells (immunoblot); format: cell-based; conditions: for BRD4 level, time course: JQ1-TCO 10 μM then Tz-thalidomide 10 μM
T2 construct: host or cells: HeLa
Method: BRD4 presence was assessed by SDS-PAGE followed by Western Blot using a specific BRD4 antibody.
(§3) HeLa cells (purchased from ATCC) were cultured in Eagle's Minimum Essential Medium (EMEM) supplemented with 10% FBS (Gibco, Life Technologies), 0.1% NEAA (Non-Essential Amino Acid, Gibco, Life Technologies) and 2 mM glutamine and were grown at 37° C. with 5% CO2. A375 and HCT116 cells (purchased from ATCC) were cultured in Dulbecco's Modified Eagle Medium (DMEM) supplemented with 10% FBS (Gibco, Life Technologies) and were grown at 37° C. with 5% CO2.
(§4) The medium was removed and the cells were washed with PBS (2×). A375 and HCT116 cells were lysed with TG Lysis buffer (150 μL per well) and kept on ice for 20 min. The cell lysates were centrifuged at 14000 rpm for 10 min at 4° C. and the protein concentration was determined by a Pierce™ BCA Protein Assay Kit. Samples were normalised, separated on 4-12% NuPAGE gels (Life Technologies) and transferred onto a nitrocellulose membrane (Novex). The membrane was blocked in blocking buffer (Odyssey) at r.t. for 1 hour and subjected to immunodetection using a total ERK1/2 primary antibody (p44/42 MAPK ERK1/2, Cell Signaling Technologies®, 1:1000) and anti-actin antibody (Abcam ab6276, 1:10000) in blocking buffer, at r.t. for 1 hour. After washing 3× with a Tris-buffered saline (TBS) with 0.1% Tween-20 solution (TBST), the membrane was incubated with fluorescently labelled secondary antibody (IRDye800CW Donkey Anti-Rabbit, 1:10 000 and IRDye680RD Donkey Anti-Mouse, 1:10 000) for 1 hour at r.t. in the dark. After washing 2× with a TBS solution, the membrane was imaged on an Li-Cor Biosciences Odyssey system in the 800 nm and 700 nm channels.
The same procedure was followed with HeLa cells using RIPA Lysis buffer (150 μL per well) and 5% non-fat milk in TBST as blocking buffer. Immunodetection was performed using an anti-BRD4 antibody (Bethyl Laboratories, A301:985A100, 1:1000) and anti-actin antibody (Abcam ab6276, 1:10000) in 5% non-fat milk in TBST, at 4° C. for 48 hours.
(§5) HeLa, A375 and HCT116 cells were seeded in 6-well plates at 1.5.10^5 cells/mL with 2 mL/well and allowed to attach overnight before being incubated with the appropriate compounds. TCO-ligand was added from a 1000× stock in DMSO-d6 (2 μL) to the plates. The cells were incubated at 37° C. in an atmosphere of 5% CO2 and air for 18 hours. Tz-Thalidomide was added from a 1000× stock in DMSO-d6 (2 μL) to the plates. The cells were incubated at 37° C. in an atmosphere of 5% CO2 and air for 18 hours.
(§6) When Carfilzomib was used, the compound was added from a 1000× stock in DMSO-d6 (2 μL) 4 hours before the addition of Tz-thalidomide. For control experiments, untagged ligands were added instead of the TCO-compound and methyl-Tz-thalidomide was used instead of Tz-thalidomide. For the time course experiments, the cells were incubated for the indicated time after the addition of Tz-thalidomide and consequently lysed.

BRD4-2 = biological target: T3, BRD4-2 (Homo sapiens, UniProt O60885); assay: AlphaScreen histone peptide displacement assay, BRD4-2; format: binding
T3 construct: evaluated against both domains of BRD4, BRD4-1 and BRD4-2; Reaction Biology
Description: as §1, §2

ERK1/2 [1] = assay: ERK1/2 degradation by self-assembling CLIPTACs in A375 cells (immunoblot); format: cell-based; conditions: for ERK1/2 degradation, time course: Probe 1 10 μM then Tz-thalidomide 10 μM
Method: (§7) ERK1 and 2 levels were assessed by SDS-PAGE followed by Western Blot using a total ERK1/2 antibody. […] At low concentration (0.1 μM), the level of ERK1/2 was unchanged. […] Quantitation of the signal intensities allowed calculation of a DC50 of 490 nM.
as §3, §4, §5, §6

bromodomain family = assay: Thermal shift selectivity across the bromodomain family; format: binding; conditions: 10 μM, duplicate
Method: Finally, the selectivity profile of JQ1-TCO against the BET family was determined by thermal shift assay. […] (Liu et al. (2012) ChromoHub: a data hub for navigators of chromatin-mediated signalling. Bioinformatics 28: 2205-2206)
(b) Selectivity of JQ1-TCO (10 μM, duplicate, thermal shift) across the bromodomain family. (c) Immunoblot for BRD4 and Actin showing JQ1-TCO concentration dependent downregulation of BRD4 protein levels. HeLa cells were treated with JQ1-TCO for 18 hours followed by treatment with Tz-thalidomide (10 μM) for 18 hours. (d) Immunoblot for BRD4 and Actin showing Tz-thalidomide concentration dependent downregulation of BRD4 protein levels. HeLa cells were treated with JQ1-TCO (10 μM) for 18 hours followed by treatment with Tz-thalidomide for 18 hours. (e) Immunoblot for BRD4 and Actin showing time-dependent downregulation of BRD4 protein levels. HeLa cells were treated with JQ1-TCO (10 μM) for 18 hours followed by treatment with Tz-thalidomide (10 μM) for the indicated time. […] HeLa cells were treated with (−)JQ1-TCO for 18 hours followed by treatment with Tz-thalidomide for 18 hours. […] HeLa cells were treated with JQ1-TCO for 18 hours followed by treatment with Methyl-Tz-thalidomide for 18 hours. […] Experiments performed on HeLa cells.

A375 cells = assay: Activity in A375 cells (GI50); format: cell-based; conditions: Homo sapiens, A-375
ERK2 = biological target: T4, ERK2 (Homo sapiens, UniProt P28482); assay: ERK2 degradation by self-assembling CLIPTACs in HCT116 cells (immunoblot); format: cell-based; conditions: high concentrations of Probe 1 18 h then Tz-thalidomide 10 μM 18 h
T4 construct: host or cells: HCT116
T4 sequence (P28482 whole entry): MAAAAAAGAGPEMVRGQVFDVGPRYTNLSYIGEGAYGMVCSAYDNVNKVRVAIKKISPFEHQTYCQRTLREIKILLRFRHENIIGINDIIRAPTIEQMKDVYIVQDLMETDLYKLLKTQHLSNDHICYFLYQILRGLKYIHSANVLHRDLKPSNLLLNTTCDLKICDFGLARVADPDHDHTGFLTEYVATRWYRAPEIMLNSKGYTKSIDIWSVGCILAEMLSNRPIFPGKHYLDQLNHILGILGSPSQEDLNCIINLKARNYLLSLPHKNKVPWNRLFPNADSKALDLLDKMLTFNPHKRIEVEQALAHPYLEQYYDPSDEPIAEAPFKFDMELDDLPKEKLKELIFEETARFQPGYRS
Method: as §7, §3
The medium was removed and the cells were washed with PBS (2×). A375 and HCT116 cells were lysed with TG Lysis buffer (150 μL per well) and kept on ice for 20 min. The cell lysates were centrifuged at 14000 rpm for 10 min at 4° C. and the protein concentration was determined by a Pierce™ BCA Protein Assay Kit. Samples were normalised, separated on 4-12% NuPAGE gels (Life Technologies) and transferred onto a nitrocellulose membrane (Novex). […]

ERK1/2 [2] = assay: ERK1/2 degradation by self-assembling CLIPTACs in A375 cells (immunoblot); format: cell-based
[3] = 4-hour pre-treatment with Carfilzomib (1 μM) in the CLIPTAC experiment

BRD4 level (BRD4; [3]): remained the same as in untreated cells
SMILES: CC(C)C[C@H](NC(=O)[C@H](CCc1ccccc1)NC(=O)CN1CCOCC1)C(=O)N[C@@H](Cc1ccccc1)C(=O)N[C@@H](CC(C)C)C(=O)[C@@]1(C)CO1 [Carfilzomib, reference compound]
ERK1/2 degradation (ERK1/2 [1]; [3]): rescued

GI50 (A375 cells): 470 ± 140 nM | ERK2 degradation (ERK2): complete degradation | DC50 (ERK1/2 [1]; Probe 1 18 h then Tz-thalidomide 10 μM 18 h): 490 nM
SMILES: C=CC(=O)Nc1ccccc1Nc1nc(Nc2ccnc(C#CCCNC(=O)OC3CC/C=C/CCC3)c2)ncc1Cl (stereo not drawn) [Probe 1, (4E)-Cyclooct-4-en-1-yl N-(4-{4-[(5-chloro-4-{[2-(prop-2-enamido)phenyl]amino}pyrimidin-2-yl)amino]pyridin-2-yl}but-3-yn-1-yl) carbamate]
ERK1/2 level (ERK1/2 [1]; Probe 1 0.1 μM 18 h then Tz-thalidomide 10 μM 18 h): unchanged | ERK1/2 degradation, time course (ERK1/2 [1]; after 8 hours): partially | ERK1/2 degradation, time course (ERK1/2 [1]; after 16 hours): complete | ERK1/2 degradation (ERK1/2 [1]; Probe 1 0.3 and 1 μM 18 h then Tz-thalidomide 10 μM 18 h): Partial degradation | ERK1/2 suppression (ERK1/2 [1]; Probe 1 at higher concentrations 18 h then Tz-thalidomide 10 μM 18 h): complete | ERK1/2 level (ERK1/2 [1]; compound alone): unmodified

BRD4 degradation (BRD4; JQ1-TCO 10 μM 18 h, then Tz-thalidomide 10 and 3 μM 18 h): completely degraded | BRD4 degradation (BRD4; JQ1-TCO 10 μM 18 h, then Tz-thalidomide at lower concentrations 18 h): partially | BRD4 level (BRD4; compound alone): unaffected
SMILES: Cc1nnc(-c2ccc(CNC(=O)CCCCCOc3cccc4c3C(=O)N(C3CCC(=O)NC3=O)C4=O)cc2)nn1 (stereo not drawn) [Tz-thalidomide, 6-{[2-(2,6-Dioxopiperidin-3-yl)-1,3-dioxo-2,3-dihydro-1H-isoindol-4-yl]oxy}-N-{[4-(6-methyl-1,2,4,5-tetrazin-3-yl)phenyl]methyl}hexanamide]
ERK1/2 degradation profile (ERK1/2 [2]; Probe 1 1 μM 4 hours then Tz-thalidomide 1 μM 18 hours): best degradation profile | ERK1/2 degradation (ERK1/2 [2]; Probe 1 4 h then Tz-thalidomide 0.1 and 0.3 μM): not observed | ERK1/2 level (ERK1/2 [1]; compound alone): unmodified

Further lines, the compound ahead of its results:

SMILES: Cc1sc2c(c1C)C(c1ccc(Cl)cc1)=N[C@H](CC(=O)NCCCNC(=O)OC1CC/C=C/CCC1)c1nnc(C)n1-2 (single isomer, unassigned; (-)) [(−)JQ1-TCO]
IC50 (BRD4-1): 13500 ± 210 nM | BRD4 degradation (BRD4; (−)JQ1-TCO at any concentration tested, then Tz-thalidomide 10 μM): no BRD4 degradation | IC50 (BRD4-2): 24300 ± 920 nM

SMILES: Cc1sc2c(c1C)C(c1ccc(Cl)cc1)=N[C@@H](CC(=O)NCCCNC(=O)OC1CC/C=C/CCC1)c1nnc(C)n1-2 (stereo partly drawn) [JQ1-TCO, (4E)-Cyclooct-4-en-1-yl N-(3-{2-[(9S)-7-(4-chlorophenyl)-4,5,13-trimethyl-3-thia-1,8,11,12-tetraazatricyclo[8.3.0.0^2,6]trideca-2(6),4,7,10,12-pentaen-9-yl]acetamido}propyl)carbamate]
Selectivity across the bromodomain family (thermal shift) (bromodomain family): bind selectively to subfamily II | IC50 (BRD4-1): 16 ± 3 nM | BRD4 level, time course (BRD4; after 16 hours): clearly dropped | BRD4 level, time course (BRD4; after 24 hours): complete degradation | BRD4 level, time course (BRD4; up to 8 hours): unchanged | BRD4 degradation (BRD4; JQ1-TCO 1 and 0.3 μM 18 h, then Tz-thalidomide 10 μM 18 h): partial degradation | BRD4 degradation (BRD4; JQ1-TCO 10 and 3 μM 18 h, then Tz-thalidomide 10 μM 18 h): complete degradation | DC50 (BRD4; JQ1-TCO 18 h followed by fixed Tz-thalidomide (10 μM) 18 h, read-out: 50% degradation concentration (DC50) of BRD4): 420 nM | BRD4 level (BRD4; compound alone): unaffected | IC50 (BRD4-2): 63 ± 2 nM

SMILES: Cc1nnc(-c2ccc(CNC(=O)CCCCCOc3cccc4c3C(=O)N(C3CCC(=O)N(C)C3=O)C4=O)cc2)nn1 (stereo not drawn) [methyl-Tz-thalidomide, N-{[4-(6-Methyl-1,2,4,5-tetrazin-3-yl)phenyl]methyl}-6-{[2-(1-methyl-2,6-dioxopiperidin-3-yl)-1,3-dioxo-2,3-dihydro-1H-isoindol-4-yl]oxy}hexanamide]
BRD4 level (BRD4; JQ1-TCO 10 μM then methyl-Tz-thalidomide 10 μM): remained unchanged | BRD4 level (BRD4; JQ1-TCO 10 μM then methyl-Tz-thalidomide 10 μM, listed as Methyl-Tz-thalidomide): no BRD4 degradation | ERK1/2 degradation compared with Tz-thalidomide (ERK1/2 [1]; Probe 1 18 h then methyl-Tz-thalidomide 10 μM 18 h): far less effective; also recorded: reduced ERK1/2 degradation

From patent publication US11786600B2, “Cliptac composition” (OTSUKA PHARMACEUTICAL CO., LTD., priority 2016, dated 2023)
